The conditions of data set [1]: in words; cited from earlier work.
For data set [2] the following is noted: in words; cited from earlier work. The source holds these as a separate data set.
Data set [3] can be described thus: solubility in buffer pH 7.6. Type of data set: physicochemical. Particulars: aqueous buffer.
Data set [4] relates to ocular pressure in rabbit. Nature of the data set: decrease in ocular pressure in rabbit, transient ocular hypertension model (5% glucose infusion), topical instillation. Also noted: endoocular pressure, 10' OS / endoocular pressure, 20' OC / endoocular pressure, 40' OS: unit not given beside the values. The following applies: for endoocular pressure, 10' OS / endoocular pressure, 20' OS / endoocular pressure, 40' OS: left eye (diluent-treated fellow eye, control); for endoocular pressure, 10' OS / endoocular pressure, 10' OD: 10 minutes; for endoocular pressure, 20' OS / endoocular pressure, 20' OC: 20 minutes; for endoocular pressure, 40' OS / endoocular pressure, 40' OD: 40 minutes; for endoocular pressure, 10' OD / endoocular pressure, 20' OC / endoocular pressure, 40' OD: right eye (drug-treated, 2 drops of 2% solution). The data set is classed as in vivo. Here is the method:
In vivo experiments were carried out on the compounds of the present invention, and, amongst the others, those experiments whose results are reported in the following Table 2, concerning the decrease in the ocular pressure in rabbit.
For determining such results a transient ocular hypertension model was employed, said hypertension being obtained in rabbit through rapid venous infusion of suitable volumes (20 ml/kg) of 5% glucose solution.
Albino rabbits from the same farm in New Zealand were employed, whose weights were between 2,500 e 3,000 g. Each treatment was carried out on a group of six animals.
The drug was prepared in a phosphate buffer water solution at pH 7.5. The solution was made isotonic with sodium chloride and the possibility of microbial contamination was prevented through the addition of benzalkonium chloride. In case of compounds of low solubility, a dispersing suspension of the finely divided compound in methyl cellulose was prepared. The solution (or the suspension) was instilled into the right eye of each animal in the amount of 2 drops of 2% solution, at an interval of 2 minutes from one another. The left eye was treated with an equal volume of diluent.
The measurements of pressure were performed while animals were in superficial local anaesthesia (0.4% benoxinate), by means of a McKay-Marg electronic pressure gage, at the times -30', 0', 10', 20', 40'.
The following table reports the endoocular pressure measured after 10, 20, and 40 minutes both in the right and in the left eye: the higher the difference in the ocular pressure between the treated eye and the untreated eye, the higher the efficiency of the drug considered.

The next data set has as its target carbonic anhydrase. Nature of the data set: in vitro inhibition of carbonic anhydrase (enzymic activity), CO2-electrode potentiometric analysis. The data set is classed as biochemical. Particulars: samples at 10^-7, 3×10^-7, 6×10^-7 and 10^-6 molar; read-out: I50 (molar concentration that gives a 50% reduction of enzymic activity). The text has this:
For determining the in vitro activities, samples were employed at molar concentrations of 10^-7, 3×10^-7, 6×10^-7, and 10^-6, and the results given in Table 1 were obtained by CO2 -electrode potentiometric analysis.

Data set [5] is described as follows: stability of the product (hydrolysis), observed on preparation. The data set is classed as physicochemical. The following applies: residue after reaction with liquid ammonia.

Structures are written as SMILES. In brackets after ≈: the same amount, converted by molar mass.

Regarding `CC(=O)Nc1nnc(S(N)(=O)=O)s1` [ACETAZOLAMIDE, 5-acetamido-2-sulfonamido-1,3,4-thiadiazole], the “absorption when instilled in the eye” value in data set [1] is recorded as “poor absorption”. The water solubility entry in data set [2] is recorded as “practically insoluble”.
As for `COC(=O)CCC(=O)Nc1nnc(S(N)(=O)=O)s1` [RENDE 023, 5-methylsuccinoylamino-2-sulfonamido-1,3,4-thiadiazole], the concentration in solution in data set [3] (solubility) came to 740 µg/mL (≈ 2.51 mM). Also, in data set [4], the “endoocular pressure, 10' OS” value amounted to 25.5; the “endoocular pressure, 20' OS” value was 20.17; the “endoocular pressure, 40' OS” value came to 16.67; the “endoocular pressure, 10' OD” value was found to be 25.33. In data set [4], the “endoocular pressure, 20' OC” value was 19.5 and the “endoocular pressure, 40' OD” value was determined as 16.5. Besides, the IC50 on carbonic anhydrase stood at 550 nM.
On to `COC(=O)CCC(=O)N=c1sc(S(N)(=O)=O)nn1C` [RENDE 024, 5-Methylsuccinoylamino-4-methyl-2-sulfonamido-1,3,4-thiadiazole], for which, in data set [3], the solubility – broadly, the dissolved amount per volume that the medium holds – was determined as 2250 µg/mL (≈ 7.3 mM). Besides, in data set [4], the “endoocular pressure, 10' OS” value is on record as 25.83; the “endoocular pressure, 20' OS” value came out at 21.5; the “endoocular pressure, 40' OS” value amounted to 17.83; the “endoocular pressure, 10' OD” value is reported as 24.67. Moreover, in data set [4], the “endoocular pressure, 20' OC” value is listed as 20.33 and the “endoocular pressure, 40' OD” value amounted to 17.33. At carbonic anhydrase, the IC50 worked out at 450 nM.
On to `NCCCCC(=O)Nc1nnc(S(N)(=O)=O)s1` [RENDE 027, 5-(5-Aminovaleroylamino)-2-sulfonamido-1,3,4-thiadiazole], for which the concentration in solution in data set [3] (solubility) was 208 µg/mL (≈ 0.745 mM). Moreover, in data set [4], the “endoocular pressure, 10' OS” value is 26.17; the “endoocular pressure, 20' OS” value is reported as 21.5; the “endoocular pressure, 40' OS” value is on record as 17.33; the “endoocular pressure, 10' OD” value was determined as 24.0. In addition, in data set [4], the “endoocular pressure, 20' OC” value is 20.83 and the “endoocular pressure, 40' OD” value was found to be 16.83. Also, the IC50 at carbonic anhydrase amounted to 440 nM.
Consider `CCOC(=O)CCC(=O)Nc1nnc(S(N)(=O)=O)s1` [RENDE 029, 5-Ethylsuccinoylamino-2-sulfonamido-1,3,4-thiadiazole], for which, in data set [3], the solubility stood at 2760 µg/mL (≈ 8.95 mM). Also, in data set [4], the “endoocular pressure, 10' OS” value was 25.67; the “endoocular pressure, 20' OS” value is reported as 20.67; the “endoocular pressure, 40' OS” value came to 17.67; the “endoocular pressure, 10' OD” value came to 20.33. In addition, in data set [4], the “endoocular pressure, 20' OC” value was 17.33 and the “endoocular pressure, 40' OD” value is given as 15.67.
In data set [3], `CCCCCOC(=O)CCC(=O)Nc1nnc(S(N)(=O)=O)s1` [RENDE 032, 5-Pentylsuccinoylamino-2-sulfonamido-1,3,4-thiadiazole] came in with a solubility of 470 µg/mL (≈ 1.34 mM). Also, in data set [4], the “endoocular pressure, 10' OS” value was found to be 24.5; the “endoocular pressure, 20' OS” value is 21.33; the “endoocular pressure, 40' OS” value is listed as 18.83; the “endoocular pressure, 10' OD” value turned out to be 22.67. Further, in data set [4], the “endoocular pressure, 20' OC” value is 20.0 and the “endoocular pressure, 40' OD” value worked out at 17.83. The IC50 at carbonic anhydrase was determined as 390 nM.
Turning to `CC(C)COC(=O)CCC(=O)Nc1nnc(S(N)(=O)=O)s1` [RENDE 034, 5-Isobutylsuccinoylamino-2-sulfonamido-1,3,4-thiadiazole], the concentration in solution in data set [3] (solubility) was 1240 µg/mL (≈ 3.69 mM). Also, in data set [4], the “endoocular pressure, 10' OS” value amounted to 25.67; the “endoocular pressure, 20' OS” value was determined as 21.17; the “endoocular pressure, 40' OS” value amounted to 17.17; the “endoocular pressure, 10' OD” value is on record as 21.5. In data set [4], the “endoocular pressure, 20' OC” value turned out to be 19.0 and the “endoocular pressure, 40' OD” value is on record as 16.67. The IC50 on carbonic anhydrase is 370 nM.
`CCCCCOC(=O)CCC(=O)N=c1sc(S(N)(=O)=O)nn1C` [RENDE 035, 5-Pentylsuccinoylamino-4-methyl-2-sulfonamido-1,3,4-thiadiazole]: in data set [3], the solubility was determined as 535 µg/mL (≈ 1.47 mM). In data set [4], the “endoocular pressure, 10' OS” value was 25.17; the “endoocular pressure, 20' OS” value came out at 22.0; the “endoocular pressure, 40' OS” value was 18.0; the “endoocular pressure, 10' OD” value came to 24. Also, in data set [4], the “endoocular pressure, 20' OC” value is reported as 20.67 and the “endoocular pressure, 40' OD” value is on record as 17.83. Moreover, the IC50 at carbonic anhydrase was found to be 307 nM.
`NS(=O)(=O)c1nnc(NC(=O)CCC(=O)O)s1` [RENDE 037, 5-succinoylamino-2-sulfonamido-1,3,4-thiadiazolic acid] displayed a solubility in data set [3] of 28700 µg/mL (≈ 102 mM). Also, in data set [4], the “endoocular pressure, 10' OS” value worked out at 26.0; the “endoocular pressure, 20' OS” value is on record as 21.67; the “endoocular pressure, 40' OS” value came out at 19.0; the “endoocular pressure, 10' OD” value worked out at 19.33. For the same molecule, in data set [4], the “endoocular pressure, 20' OC” value was found to be 17.17 and the “endoocular pressure, 40' OD” value was 15.67.
Take `NS(=O)(=O)c1nnc(NC(=O)CCC(=O)OCC(F)(F)F)s1` [Rende 039, 5-Trifluoroethylsuccinoylamino-2-sulfonamido-1,3,4-thiadiazole]: the stability result in data set [5] is “very unstable and becomes very easily hydrolysed”.

Values taken from patent US5010204A, “Acetazolamide-related compounds, process for their preparation, and pharmaceutical composition containing the same” (Instituto Chimico Internazionale Dr. Giuseppe Rende S.r.l., priority 1988, dated 1991).
